Results: ChEMBL document CHEMBL3991601, “The target landscape of clinical kinase drugs” (Science, 2017)
Calls of active or inactive are those of the source. Rule as the data show it, for most assays here: actives have a measured Kd and inactives only a lower limit.

How the values were obtained:
[1] = target: T1, Peroxisomal acyl-coenzyme A oxidase 3 (Homo sapiens, UniProt O15254)
T1 sequence (O15254 whole entry): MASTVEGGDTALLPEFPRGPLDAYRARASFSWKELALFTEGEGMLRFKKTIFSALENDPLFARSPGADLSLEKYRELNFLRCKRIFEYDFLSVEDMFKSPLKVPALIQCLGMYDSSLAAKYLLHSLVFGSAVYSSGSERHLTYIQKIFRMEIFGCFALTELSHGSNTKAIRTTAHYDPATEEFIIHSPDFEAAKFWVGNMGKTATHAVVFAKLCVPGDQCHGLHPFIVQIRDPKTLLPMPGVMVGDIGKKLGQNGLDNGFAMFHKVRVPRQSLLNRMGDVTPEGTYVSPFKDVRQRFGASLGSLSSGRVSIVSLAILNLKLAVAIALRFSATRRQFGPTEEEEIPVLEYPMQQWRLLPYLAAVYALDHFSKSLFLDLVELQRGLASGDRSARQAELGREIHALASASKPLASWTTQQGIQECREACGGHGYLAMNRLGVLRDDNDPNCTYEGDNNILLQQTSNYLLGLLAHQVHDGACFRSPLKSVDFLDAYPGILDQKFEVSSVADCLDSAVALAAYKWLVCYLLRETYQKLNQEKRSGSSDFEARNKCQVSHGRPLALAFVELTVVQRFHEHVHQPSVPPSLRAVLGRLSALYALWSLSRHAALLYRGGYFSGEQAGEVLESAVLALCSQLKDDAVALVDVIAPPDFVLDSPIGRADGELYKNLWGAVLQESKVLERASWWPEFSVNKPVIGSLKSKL

[2] = target: Mitotic checkpoint serine/threonine-protein kinase BUB1 (Homo sapiens, UniProt O43683)
[3] = target: Insulin-like growth factor 1 receptor (Homo sapiens, UniProt P08069)
LIM domain kinase 1 = LIM domain kinase 1 (Homo sapiens, UniProt P53667)
[4] = target: Serine/threonine-protein kinase PAK 4 (Homo sapiens, UniProt O96013)
[5] = target: Serine/threonine-protein kinase N1 (Homo sapiens, UniProt Q16512)
[6] = target: cAMP-dependent protein kinase catalytic subunit gamma (Homo sapiens, UniProt P22612)
[7] = target: Protein kinase C alpha type (Homo sapiens, UniProt P17252)
[8] = target: Tyrosine-protein kinase SYK (Homo sapiens, UniProt P43405)
[9] = target: T2, Serine/threonine-protein kinase TAO3 (Homo sapiens, UniProt Q9H2K8)
T2 sequence (Q9H2K8 whole entry): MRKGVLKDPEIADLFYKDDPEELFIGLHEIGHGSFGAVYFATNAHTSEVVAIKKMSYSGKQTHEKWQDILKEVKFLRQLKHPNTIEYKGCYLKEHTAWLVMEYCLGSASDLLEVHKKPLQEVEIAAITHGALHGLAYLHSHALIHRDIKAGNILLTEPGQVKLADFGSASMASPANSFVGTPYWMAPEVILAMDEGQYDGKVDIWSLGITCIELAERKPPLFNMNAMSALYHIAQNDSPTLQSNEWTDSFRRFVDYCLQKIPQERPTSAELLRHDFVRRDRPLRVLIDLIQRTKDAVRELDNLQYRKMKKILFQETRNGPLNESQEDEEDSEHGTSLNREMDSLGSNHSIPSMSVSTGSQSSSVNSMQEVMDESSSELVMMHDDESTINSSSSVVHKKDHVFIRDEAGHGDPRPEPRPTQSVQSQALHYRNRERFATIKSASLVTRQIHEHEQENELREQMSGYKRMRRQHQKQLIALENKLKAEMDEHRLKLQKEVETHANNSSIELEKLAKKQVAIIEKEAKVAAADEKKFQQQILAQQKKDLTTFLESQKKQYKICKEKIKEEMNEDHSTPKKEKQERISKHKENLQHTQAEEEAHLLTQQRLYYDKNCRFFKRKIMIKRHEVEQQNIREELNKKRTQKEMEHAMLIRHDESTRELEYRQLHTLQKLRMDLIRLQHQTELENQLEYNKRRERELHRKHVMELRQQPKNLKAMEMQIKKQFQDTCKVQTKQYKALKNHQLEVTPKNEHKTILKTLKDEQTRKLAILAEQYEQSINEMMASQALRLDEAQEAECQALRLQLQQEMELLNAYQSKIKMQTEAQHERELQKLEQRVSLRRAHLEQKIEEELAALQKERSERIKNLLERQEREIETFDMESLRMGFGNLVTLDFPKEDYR

[10] = target: Elongation factor Tu, mitochondrial (Homo sapiens, UniProt P49411)
[11] = target: T3, Probable ATP-dependent RNA helicase DDX6 (Homo sapiens, UniProt P26196)
T3 sequence (P26196 whole entry): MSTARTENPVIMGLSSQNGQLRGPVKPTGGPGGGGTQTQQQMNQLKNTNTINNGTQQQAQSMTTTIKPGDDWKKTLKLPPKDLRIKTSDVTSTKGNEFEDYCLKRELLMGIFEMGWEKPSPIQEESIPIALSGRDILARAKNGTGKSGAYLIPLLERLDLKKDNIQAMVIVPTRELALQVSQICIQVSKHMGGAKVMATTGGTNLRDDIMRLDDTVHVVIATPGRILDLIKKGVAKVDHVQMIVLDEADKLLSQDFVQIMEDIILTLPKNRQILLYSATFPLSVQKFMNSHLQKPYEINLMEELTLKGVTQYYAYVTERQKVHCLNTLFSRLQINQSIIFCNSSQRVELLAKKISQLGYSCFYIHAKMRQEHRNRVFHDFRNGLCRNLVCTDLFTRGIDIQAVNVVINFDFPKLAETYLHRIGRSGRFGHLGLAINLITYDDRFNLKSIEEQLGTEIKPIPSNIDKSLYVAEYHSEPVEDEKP
Also: in the data inactive means no Kd found up to 30 µM.

Chain of cAMP-dependent protein kinase catalytic subunit gamma (P22612 whole entry): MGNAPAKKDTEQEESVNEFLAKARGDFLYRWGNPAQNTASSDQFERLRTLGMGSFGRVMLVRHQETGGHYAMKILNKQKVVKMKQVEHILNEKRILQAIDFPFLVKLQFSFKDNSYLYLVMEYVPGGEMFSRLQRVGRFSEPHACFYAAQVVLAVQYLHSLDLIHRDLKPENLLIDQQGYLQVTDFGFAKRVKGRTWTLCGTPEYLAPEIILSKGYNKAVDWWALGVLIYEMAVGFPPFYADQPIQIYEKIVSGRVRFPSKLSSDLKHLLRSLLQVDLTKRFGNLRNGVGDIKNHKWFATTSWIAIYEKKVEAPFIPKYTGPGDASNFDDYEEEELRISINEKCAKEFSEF
Chain of LIM domain kinase 1 (P53667 whole entry, the tested form may be a part): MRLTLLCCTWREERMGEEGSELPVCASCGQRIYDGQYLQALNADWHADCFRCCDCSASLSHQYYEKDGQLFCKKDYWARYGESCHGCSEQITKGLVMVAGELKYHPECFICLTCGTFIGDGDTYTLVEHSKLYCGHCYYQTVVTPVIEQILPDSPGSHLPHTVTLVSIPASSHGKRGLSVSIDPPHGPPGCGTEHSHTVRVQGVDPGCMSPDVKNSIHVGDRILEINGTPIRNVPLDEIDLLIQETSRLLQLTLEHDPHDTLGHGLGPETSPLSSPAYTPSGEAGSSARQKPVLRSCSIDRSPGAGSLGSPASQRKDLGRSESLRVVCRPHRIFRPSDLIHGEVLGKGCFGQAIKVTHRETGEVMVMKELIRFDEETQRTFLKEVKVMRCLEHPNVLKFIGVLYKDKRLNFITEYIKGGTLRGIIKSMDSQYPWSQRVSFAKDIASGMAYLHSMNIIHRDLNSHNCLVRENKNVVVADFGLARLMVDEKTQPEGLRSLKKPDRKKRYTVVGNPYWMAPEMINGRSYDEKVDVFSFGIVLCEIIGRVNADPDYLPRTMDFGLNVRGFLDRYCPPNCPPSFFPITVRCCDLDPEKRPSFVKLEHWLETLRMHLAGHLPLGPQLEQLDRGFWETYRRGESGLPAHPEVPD
Chain of Mitotic checkpoint serine/threonine-protein kinase BUB1 (O43683 whole entry): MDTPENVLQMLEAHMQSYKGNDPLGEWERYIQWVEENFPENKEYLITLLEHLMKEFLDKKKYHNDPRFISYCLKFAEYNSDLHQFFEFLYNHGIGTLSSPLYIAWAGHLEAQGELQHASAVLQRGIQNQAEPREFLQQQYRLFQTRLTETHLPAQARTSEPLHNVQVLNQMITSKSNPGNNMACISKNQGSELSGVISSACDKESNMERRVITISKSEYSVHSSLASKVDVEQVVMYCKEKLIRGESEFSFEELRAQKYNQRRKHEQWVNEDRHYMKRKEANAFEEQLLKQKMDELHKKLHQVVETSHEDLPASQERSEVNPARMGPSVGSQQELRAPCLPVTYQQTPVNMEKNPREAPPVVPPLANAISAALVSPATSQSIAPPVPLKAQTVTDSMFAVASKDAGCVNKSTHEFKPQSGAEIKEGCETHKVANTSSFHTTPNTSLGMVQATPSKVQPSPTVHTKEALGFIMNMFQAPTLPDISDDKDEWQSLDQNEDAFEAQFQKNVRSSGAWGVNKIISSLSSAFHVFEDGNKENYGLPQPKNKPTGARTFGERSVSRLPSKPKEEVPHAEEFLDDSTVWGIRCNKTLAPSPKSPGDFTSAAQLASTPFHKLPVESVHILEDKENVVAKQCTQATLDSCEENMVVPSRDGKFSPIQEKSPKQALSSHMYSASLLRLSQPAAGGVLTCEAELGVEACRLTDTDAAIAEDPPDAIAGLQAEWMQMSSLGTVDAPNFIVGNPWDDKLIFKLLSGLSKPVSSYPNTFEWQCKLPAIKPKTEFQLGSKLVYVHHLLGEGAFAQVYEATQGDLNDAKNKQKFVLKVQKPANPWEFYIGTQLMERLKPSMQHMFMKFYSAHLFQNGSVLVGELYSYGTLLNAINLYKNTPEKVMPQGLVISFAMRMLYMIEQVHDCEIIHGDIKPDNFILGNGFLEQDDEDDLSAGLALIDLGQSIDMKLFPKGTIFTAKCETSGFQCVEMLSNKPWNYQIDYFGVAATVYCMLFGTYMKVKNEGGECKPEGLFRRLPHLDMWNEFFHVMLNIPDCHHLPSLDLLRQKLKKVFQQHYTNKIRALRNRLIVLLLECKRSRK
Chain of Serine/threonine-protein kinase PAK 4 (O96013 whole entry): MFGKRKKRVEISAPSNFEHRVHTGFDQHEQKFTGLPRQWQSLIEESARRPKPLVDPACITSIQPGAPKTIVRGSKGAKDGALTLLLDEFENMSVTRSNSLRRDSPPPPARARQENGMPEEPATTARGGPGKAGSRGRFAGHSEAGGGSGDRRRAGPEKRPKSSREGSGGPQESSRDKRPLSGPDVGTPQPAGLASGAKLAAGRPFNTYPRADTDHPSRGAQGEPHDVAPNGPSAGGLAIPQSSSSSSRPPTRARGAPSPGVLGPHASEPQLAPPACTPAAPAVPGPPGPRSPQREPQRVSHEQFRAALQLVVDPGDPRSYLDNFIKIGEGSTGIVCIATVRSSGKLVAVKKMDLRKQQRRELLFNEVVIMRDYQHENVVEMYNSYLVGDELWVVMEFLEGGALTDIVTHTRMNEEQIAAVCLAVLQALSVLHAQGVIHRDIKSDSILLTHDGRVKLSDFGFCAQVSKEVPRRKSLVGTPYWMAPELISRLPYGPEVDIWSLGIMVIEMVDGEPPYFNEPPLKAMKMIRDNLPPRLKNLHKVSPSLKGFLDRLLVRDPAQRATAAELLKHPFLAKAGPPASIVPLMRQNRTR
Chain of Insulin-like growth factor 1 receptor (P08069 31-736 limits assumed): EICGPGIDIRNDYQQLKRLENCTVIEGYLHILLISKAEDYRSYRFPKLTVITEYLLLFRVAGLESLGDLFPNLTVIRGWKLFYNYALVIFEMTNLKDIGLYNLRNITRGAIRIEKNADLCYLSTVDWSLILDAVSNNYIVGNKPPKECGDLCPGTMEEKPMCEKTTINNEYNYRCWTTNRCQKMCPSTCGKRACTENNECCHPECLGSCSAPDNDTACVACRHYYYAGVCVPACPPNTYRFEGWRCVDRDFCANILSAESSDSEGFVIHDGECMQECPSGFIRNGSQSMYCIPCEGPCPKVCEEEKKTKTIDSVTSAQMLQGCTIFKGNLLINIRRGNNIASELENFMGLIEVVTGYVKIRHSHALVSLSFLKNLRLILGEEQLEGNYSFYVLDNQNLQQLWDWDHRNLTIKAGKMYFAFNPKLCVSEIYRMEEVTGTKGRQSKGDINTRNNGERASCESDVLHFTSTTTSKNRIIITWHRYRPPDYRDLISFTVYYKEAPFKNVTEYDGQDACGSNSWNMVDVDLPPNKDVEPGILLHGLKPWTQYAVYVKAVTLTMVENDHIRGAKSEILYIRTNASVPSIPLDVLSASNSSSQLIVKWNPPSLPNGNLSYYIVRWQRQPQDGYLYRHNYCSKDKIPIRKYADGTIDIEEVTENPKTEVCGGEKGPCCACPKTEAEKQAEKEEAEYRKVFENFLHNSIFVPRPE
Chain of Insulin-like growth factor 1 receptor (P08069 741-1367 limits assumed): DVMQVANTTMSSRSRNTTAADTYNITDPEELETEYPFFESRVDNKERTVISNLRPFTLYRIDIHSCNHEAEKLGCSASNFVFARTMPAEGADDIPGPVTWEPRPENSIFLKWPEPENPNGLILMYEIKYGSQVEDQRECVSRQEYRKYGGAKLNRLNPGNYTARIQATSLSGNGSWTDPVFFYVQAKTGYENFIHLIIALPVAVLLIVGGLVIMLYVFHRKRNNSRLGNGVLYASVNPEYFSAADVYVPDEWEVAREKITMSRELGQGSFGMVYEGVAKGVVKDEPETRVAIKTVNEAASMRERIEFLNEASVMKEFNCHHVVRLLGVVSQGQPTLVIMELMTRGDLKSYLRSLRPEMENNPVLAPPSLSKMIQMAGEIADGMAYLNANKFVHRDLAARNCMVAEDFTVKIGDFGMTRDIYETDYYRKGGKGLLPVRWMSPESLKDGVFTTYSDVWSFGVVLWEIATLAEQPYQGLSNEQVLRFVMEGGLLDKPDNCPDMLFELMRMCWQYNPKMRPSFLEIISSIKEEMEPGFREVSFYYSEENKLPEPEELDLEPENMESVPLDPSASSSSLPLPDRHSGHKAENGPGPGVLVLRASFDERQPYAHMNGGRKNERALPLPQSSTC

| Kd [1] | Kd [2] | Kd [3] | Kd (LIM domain kinase 1) | Kd [4] | Kd [5] | Kd [6] | Kd [7] | Kd [8] | Kd [9] | Kd [10] | Kd [11] | SMILES |
| --- | --- | --- | --- | --- | --- | --- | --- | --- | --- | --- | --- | --- |
| > 30 µM (inactive) | > 30 µM (inactive) | > 30 µM (inactive) | > 30 µM (inactive) | > 30 µM (inactive) | > 30 µM (inactive) | > 30 µM (inactive) | > 30 µM (inactive) | > 30 µM (inactive) | > 30 µM (inactive) | > 30 µM (inactive) | – | C[C@@H](Nc1cc(F)cc(F)c1)c1cc(C(=O)N(C)C)cc2c(=O)cc(N3CCOCC3)oc12 [AZD-8186] |
| > 30 µM (inactive) | > 30 µM (inactive) | > 30 µM (inactive) | > 30 µM (inactive) | > 30 µM (inactive) | > 30 µM (inactive) | > 30 µM (inactive) | > 30 µM (inactive) | > 30 µM (inactive) | > 30 µM (inactive) | > 30 µM (inactive) | 4.1 µM | Cc1cc([C@@H](C)Nc2ccccc2C(=O)O)c2nc(N3CCOCC3)cc(=O)n2c1 [AZD-6482] |
| > 30 µM (inactive) | – | > 30 µM (inactive) | > 30 µM (inactive) | > 30 µM (inactive) | 0.104 µM (active) | > 30 µM (inactive) | 2.07 µM (active) | > 30 µM (inactive) | > 30 µM (inactive) | > 30 µM (inactive) | > 30 µM (inactive) | CCS(=O)(=O)N1CC(CC#N)(n2cc(-c3ncnc4[nH]ccc34)cn2)C1 [BARICITINIB] |
| > 30 µM (inactive) | > 30 µM (inactive) | > 30 µM (inactive) | > 30 µM (inactive) | > 30 µM (inactive) | > 30 µM (inactive) | > 30 µM (inactive) | > 30 µM (inactive) | > 30 µM (inactive) | > 30 µM (inactive) | > 30 µM (inactive) | > 30 µM (inactive) | CN1N=C(N)c2cn([C@@H]3O[C@H](COP(=O)(O)O)[C@@H](O)[C@H]3O)c3ncnc1c23 [TRICIRIBINE PHOSPHATE] |
| > 30 µM (inactive) | 0.39 µM (active) | > 30 µM (inactive) | – | > 30 µM (inactive) | > 30 µM (inactive) | > 30 µM (inactive) | > 30 µM (inactive) | > 30 µM (inactive) | > 30 µM (inactive) | > 30 µM (inactive) | > 30 µM (inactive) | O=C(Nc1ccc(-c2ccnc(Nc3ccc(N4CCOCC4)cc3)n2)cc1)C1CCCN1 (stereo not given) [XL-019] |
| > 30 µM (inactive) | > 30 µM (inactive) | – | – | – | > 30 µM (inactive) | > 30 µM (inactive) | > 30 µM (inactive) | – | – | > 30 µM (inactive) | > 30 µM (inactive) | Cc1cc(Nc2cc(N3CCN(C)CC3)nc(/C=C/c3ccccc3)n2)n[nH]1 [ENMD-2076] |
| > 30 µM (inactive) | > 30 µM (inactive) | – | – | – | – | > 30 µM (inactive) | > 30 µM (inactive) | – | – | > 30 µM (inactive) | > 30 µM (inactive) | Nc1nc(N)c2nc(-c3cccc(O)c3)c(-c3cccc(O)c3)nc2n1 [TG100-115] |
| > 30 µM (inactive) | > 30 µM (inactive) | – | – | – | – | > 30 µM (inactive) | 0.566 µM (active) | – | – | > 30 µM (inactive) | > 30 µM (inactive) | CCn1c(-c2nonc2N)nc2c(C#CC(C)(C)O)ncc(OC[C@H]3CCCNC3)c21 [GSK-690693] |
| > 30 µM (inactive) | – | > 30 µM (inactive) | > 30 µM (inactive) | > 30 µM (inactive) | > 30 µM (inactive) | > 30 µM (inactive) | > 30 µM (inactive) | > 30 µM (inactive) | > 30 µM (inactive) | > 30 µM (inactive) | > 30 µM (inactive) | C[C@@H](c1ccc2nccn2c1)n1nnc2ncc(-c3cnn(C)c3)nc21 [SAVOLITINIB] |
| > 30 µM (inactive) | > 30 µM (inactive) | – | – | – | – | > 30 µM (inactive) | > 30 µM (inactive) | – | – | > 30 µM (inactive) | > 30 µM (inactive) | CN1CCN(c2ccc3nc(-c4c(N)c5c(F)cccc5[nH]c4=O)[nH]c3c2)CC1 [DOVITINIB] |
| > 30 µM (inactive) | > 30 µM (inactive) | – | – | – | > 30 µM (inactive) | > 30 µM (inactive) | > 30 µM (inactive) | > 30 µM (inactive) | 2.44 µM (active) | > 30 µM (inactive) | > 30 µM (inactive) | CCc1cnn2c(NCc3ccc[n+]([O-])c3)cc(N3CCCC[C@H]3CCO)nc12 [DINACICLIB] |
| > 30 µM (inactive) | > 30 µM (inactive) | > 30 µM (inactive) | > 30 µM (inactive) | > 30 µM (inactive) | > 30 µM (inactive) | – | > 30 µM (inactive) | > 30 µM (inactive) | > 30 µM (inactive) | > 30 µM (inactive) | > 30 µM (inactive) | COc1cc(CCc2cc(NC(=O)c3ccc(N4C[C@@H](C)N[C@@H](C)C4)cc3)n[nH]2)cc(OC)c1 [AZD-4547] |

| SMILES | Kd [1] | Kd [2] | Kd [3] | Kd (LIM domain kinase 1) | Kd [4] | Kd [5] | Kd [6] | Kd [7] | Kd [8] | Kd [9] | Kd [10] | Kd [11] |
| --- | --- | --- | --- | --- | --- | --- | --- | --- | --- | --- | --- | --- |
| CN1CCC(COc2cnc(-c3cccc(Cn4nc(-c5cccc(C#N)c5)ccc4=O)c3)nc2)CC1 [TEPOTINIB] | > 30 µM (inactive) | > 30 µM (inactive) | > 30 µM (inactive) | > 30 µM (inactive) | > 30 µM (inactive) | > 30 µM (inactive) | > 30 µM (inactive) | > 30 µM (inactive) | – | > 30 µM (inactive) | > 30 µM (inactive) | > 30 µM (inactive) |
| Cc1cn(-c2cc(NC(=O)c3ccc(C)c(Nc4nccc(-c5cccnc5)n4)c3)cc(C(F)(F)F)c2)cn1 [NILOTINIB] | > 30 µM (inactive) | > 30 µM (inactive) | – | – | – | – | > 30 µM (inactive) | > 30 µM (inactive) | – | – | > 30 µM (inactive) | > 30 µM (inactive) |
| COC(=O)[C@@]1(O)C[C@H]2O[C@]1(C)n1c3ccccc3c3c4c(c5c6ccccc6n2c5c31)C(=O)NC4 [K-252A] | > 30 µM (inactive) | > 30 µM (inactive) | > 30 µM (inactive) | > 30 µM (inactive) | 0.344 µM (active) | 0.264 µM (active) | > 30 µM (inactive) | – | – | > 30 µM (inactive) | > 30 µM (inactive) | > 30 µM (inactive) |
